This data set concerns galK 1 site. The experiment in a line: red/white colony screen of editing efficiency at the galK 1 site (CREATE recombineering). To be noted: for Editing Efficiency 1 mM Theo: induced for 3 hours with 1 mM theophylline; for Editing Efficiency no Theo: no theophylline, 3 hours recovery. It is filed as cell-based, E. coli MG1655. Here is the method:
Candidates from this enriched library were analyzed to inform an improved library design. After three selection/counterselection steps, cells were plated on M63 selection medium^20 and 150 colonies were picked. Each isolated candidate was then transformed into unedited E. coli to screen for theophylline-responsive constructs using a red/white colony assay to quantify the percentage of edited bacteria. Colonies with an unedited galK site appear red whereas edited colonies appear white (FIG. 5). The percentage of white colonies is considered the editing efficiency. Gene editing was induced as previously described with or without adding theophylline and the editing efficiencies were compared.
The protocol established by Garst et al was mainly followed. LB containing kanamycin and chloramphenicol was inoculated with MGλ9 cells and grown overnight at 30° C. The stationary culture was diluted 100 fold in LB, containing chloramphenicol, kanamycin and 0.2% arabinose and grown to an OD600=0.4-0.6 in 25 mL LB. The culture was heat-shocked in a shaking waterbath at 42° C. for 15 minutes to induce expression of the lambda-red proteins from pSIM5. Then, the culture was washed in two volumes of ice-cold deionized water, resuspended in 500 μl deionized water and 50 μl of the cell suspension was electroporated with 200 ng of a CREATE plasmid that encodes gRNA and homology template. The transformants were recovered in 4 mL of LB, containing 0.2% arabinose and optionally 1 mM theophylline or 1 μM anhydrotetracycline (ATC), and shaken at 37° C. for 3 hours before plating on MacConkey Agar. To estimate the number of cfu, aliquots were plated on LB agar 1 hour after transformation.
In order to assess the frequency of gene editing, a red/white screen was used to visualize the introduction of a stop codon into the galK gene by CREATE. The original CREATE protocol was used for inducing gene editing and after 3 hours of recovery (with or without the agRNA ligand) a series of dilutions of the cultures were plated on MacConkey Agar plates containing 1% galactose. Bacterial colonies with a mutated galK* site appear white on the plates, whereas non-edited colonies appear red. The editing efficiency could be calculated by dividing the number of edited colonies over the total number of colonies. By comparing the editing efficiency in presence versus absence of the ligand, a dynamic range of the in vivo activity could be determined.
When screening the enriched libraries for switchable constructs, the transformants were recovered in 4 mL of LB broth, a dilution series was plated for every construct and the experiment was only carried out once due to the large volume of colonies screened (˜250 in total). When the constructs A9 and GU19 were characterized in detail, triplica of the experiment were carried out.

On to “GC12: agRNA cassette GATAGGCCAGTTAC, SEQ ID NO: 63 (expressed or natural sequence)”, for which the “Editing Efficiency 1 mM Theo” value stood at 36% and the “Editing Efficiency no Theo” value was 1%.

For “GU9: agRNA cassette GTTCGGCCCCGACT, SEQ ID NO: 41 (expressed or natural sequence)”, the “Editing Efficiency 1 mM Theo” value is on record as 0% and the “Editing Efficiency no Theo” value is listed as 0%.

On to “GU11: agRNA cassette GTATGGCCTCGGAT, SEQ ID NO: 43 (expressed or natural sequence)”, for which the “Editing Efficiency 1 mM Theo” value amounted to 0% and the “Editing Efficiency no Theo” value turned out to be 0%.

“AU9: agRNA cassette AAACGGCCCACTGT, SEQ ID NO: 23 (expressed or natural sequence)”: the “Editing Efficiency 1 mM Theo” value is reported as 22% and the “Editing Efficiency no Theo” value stood at 1%.

With “AU12: agRNA cassette AGAGGGCCGGGCGT, SEQ ID NO: 26 (expressed or natural sequence)”, the “Editing Efficiency 1 mM Theo” value worked out at 26% and the “Editing Efficiency no Theo” value worked out at 0%.

Regarding “GU2: agRNA cassette GCGAGGCCTACTAT, SEQ ID NO: 35 (expressed or natural sequence)”, the “Editing Efficiency 1 mM Theo” value was determined as 0% and the “Editing Efficiency no Theo” value amounted to 0%.

Consider “GU1: agRNA cassette GACGGGCCTAATAT, SEQ ID NO: 34 (expressed or natural sequence)”, for which the “Editing Efficiency 1 mM Theo” value is 0% and the “Editing Efficiency no Theo” value is given as 0%.

Consider “AU5: agRNA cassette ACTCGGCCTGAACT, SEQ ID NO: 19 (chemistry not given here)”, for which the “Editing Efficiency 1 mM Theo” value turned out to be 43% and the “Editing Efficiency no Theo” value worked out at 0%.

Regarding “AU2: agRNA cassette ACCAGGCCAAGTAT, SEQ ID NO: 16 (expressed or natural sequence)”, the “Editing Efficiency 1 mM Theo” value is recorded as 4% and the “Editing Efficiency no Theo” value came out at 0%.

For “A26: agRNA cassette GGGGGGCCACGCGC, SEQ ID NO: 13 (expressed or natural sequence)”, the “Editing Efficiency 1 mM Theo” value came to 89% and the “Editing Efficiency no Theo” value was 5%.

Take “GU6: agRNA cassette GGACGGCCAAGCAT, SEQ ID NO: 39 (expressed or natural sequence)”: the “Editing Efficiency 1 mM Theo” value was 1% and the “Editing Efficiency no Theo” value came to 0%.

With “AU19: agRNA cassette AATAGGCCCGCAGT, SEQ ID NO: 32 (expressed or natural sequence)”, the “Editing Efficiency 1 mM Theo” value was 10% and the “Editing Efficiency no Theo” value came to 0%.

Take “GU18: agRNA cassette GATTGGCCTACGGT, SEQ ID NO: 50 (expressed or natural sequence)”: the “Editing Efficiency 1 mM Theo” value is 1% and the “Editing Efficiency no Theo” value is reported as 0%.

In the case of “GC15: agRNA cassette GCATGGCCTACTCC, SEQ ID NO: 65 (expressed or natural sequence)”, the “Editing Efficiency 1 mM Theo” value was 21% and the “Editing Efficiency no Theo” value was 1%.

Regarding “GU16: agRNA cassette GGGAGGCCAGCGAT, SEQ ID NO: 48 (expressed or natural sequence)”, the “Editing Efficiency 1 mM Theo” value came out at 0% and the “Editing Efficiency no Theo” value is listed as 1%.

On to “GC13: agRNA cassette GGAAGGCCTTATAC, SEQ ID NO: 64 (expressed or natural sequence)”, for which the “Editing Efficiency 1 mM Theo” value was found to be 64% and the “Editing Efficiency no Theo” value is listed as 0%.

As to “GU10: agRNA cassette GTACGGCCCATAAT, SEQ ID NO: 42 (expressed or natural sequence)”, the “Editing Efficiency 1 mM Theo” value is recorded as 0% and the “Editing Efficiency no Theo” value is 0%.

Take “AU8: agRNA cassette ACGGGGCCTAATAT, SEQ ID NO: 22 (expressed or natural sequence)”: the “Editing Efficiency 1 mM Theo” value was 48% and the “Editing Efficiency no Theo” value was found to be 0.3%.

Values taken from patent publication US12416008B2, “Compositions and methods of use for small-molecule regulation of CRISPR-Cas9 activity using RNA aptamers” (priority 2019, dated 2025).
